Legend:
Type in all cases: cell-based
[1] = test system: beneficial oral bacteria and pathogenic oral bacteria; experiment: Microarray screen, overall prebiotic assessment; details: 24 hrs
Method: Substrates that were able to increase the metabolic activity of at least one of the above beneficial bacteria while not or only minimally increasing the growth of the pathogenic bacteria are considered to be prebiotic substrates.
The extent of metabolic activity of the tested bacteria in the presence of the above-mentioned saccharides after 24 hours and 48 hours was investigated through a high throughput phenotype microarray system (PM) for microbial cells (Biolog Inc.). Each PM can contain up to 95 different biochemical compounds (e.g. saccharides) that may act as substrates for bacteria as well as one negative control, not containing the substrates. Microarray plates were used in which the different wells of each plate were pre-loaded (by the manufacturer, Biolog Inc.) with different saccharides to be tested. Each bacterial species was tested using a separate microarray plate. Thus, a single bacterial species was tested with a variety of saccharides on each particular plate. The microarrays are based on redox technology, using cell respiration as a universal reporter. Active cell respiration results in the reduction of a tetrazolium dye and in the formation of a strong color—for example, when using the tetrazolium dye “Biolog Redox Dye Mix D”, the color changes from transparent/colorless to purple when the dye is reduced. The observation of this color change indicates which of the substrates improve the metabolic activity and health of the cells.
Each bacterial species was collected from blood agar plates (incubated for 48 hours anaerobically at 37° C.) and transferred to an IF-0 Base inoculation fluid (Biolog Inc.), which is a nutritionally poor medium. The resulting cell suspension was adjusted to a transmittance of 42% (relative to the transmittance of the base inoculation fluid with no bacterial species present) at 492 nm using a BioRad SmartSpec 3000 Photometer (the adjustment being effected by adding either further inoculation fluid or further bacteria until the transmittance of 42% was achieved). A 1:5 dilution of this suspension was prepared by mixing 3 mL of the 42% transmittance cell suspension with 15 mL of an inoculation fluid (which inoculation fluid was formed by mixing 11.6 mL sterile water, 62.5 mL IF-0 base inoculation fluid and 0.9 mL of the tetrazolium dye “Biolog Redox Dye mix D”), resulting in a final cell density which was equal to 85% transmittance using a BioRad SmartSpec 3000 Photometer. For each of the saccharides tested, the microarray plate (obtained from the supplier (Biolog Inc.) with saccharides already present in the relevant wells in powder form) was directly inoculated with 100 μL/well of this 85% transmittance cell suspension.
All plates were incubated in an anaerobic atmosphere at 37° C. Color changes were measured spectrophotometrically at 492 nm (Thermo Scientific Multiskan Ascent) at 24 hrs and 48 hrs using the same plate at both time points. […] After 24 hrs and 48 hrs under continuous shaking in a Multiscan microplate reader, the optical density (OD) of the synthetic medium at 24 hours and 48 hours was measured (using the microplate reader) at a wavelength of 492 nm for each combination of bacterium/saccharide, and for each of their respective controls (i.e. which contained the particular bacterium but no saccharide).
The experiment was carried out three times for each combination of bacterium with saccharide, with each repeat being carried out on a different day (thus providing three biological replicas). The controls were also carried out three times, as above. The values shown are the average (mean) of the three single values obtained (as detailed above) for each combination of bacterium with saccharide, at 24 hrs and at 48 hrs.
This value was selected in order to exclude low-stimulating metabolites and avoid false positive results.

[2] = test system: beneficial oral bacteria and pathogenic oral bacteria; experiment: Twenty-four hour biofilm growth, overall prebiotic assessment; details: concentrations of 5, 10, 20 and 25 μmol/ml
From the text: Substrates that were able to increase the biofilm mass of at least one of the above beneficial bacteria while not or only minimally increasing the biofilm mass of the pathogenic bacteria are considered to be prebiotic compounds.
(§1) The increase in biofilm formation of the tested bacteria in response to selected saccharides (D-turanose, D-lactitol, myo-inositol, and N-acetyl-D-mannosamine) was investigated by setting up biofilm growth assays in a nutritionally rich medium (brain heart infusion broth (BHI), Oxoid), over 24 hours. Late exponential growth phase liquid cultures were prepared by transferring the respective bacterium from blood agar plates to BHI and overnight incubation at 37° C. in an anaerobic atmosphere for A. viscosus, V. parvula, P. gingivalis, P. intermedia, T. forsythia, A. naeslundii, and C. sputigena, and in a 5% CO2 environment for S. salivarius, S. sanguinis, S. mitis, A. actinomycetemcomitans, S. mutans, and S. gordonii. Overnight cultures were transferred to BHI and adjusted to a concentration of 1×10^7 CFU/ml by measuring the optical density at 600 nm (OD600) (BioRad SmartSpec 3000). For each strain, 200 μl of the bacterial suspension was added to a 96-well plate containing 20 μl of the respective saccharides. Final concentrations of the saccharides were set to 5, 10, 20 and 25 μmol/ml. […] Additionally, for each bacterium tested, a background control, to correct for background staining, was added. This background control contained the bacterium tested and 0.03 weight % chlorhexidine, as an antiseptic. Plates were incubated as previously described. After 24 hrs the supernatant was removed from the wells of the plates. The wells were washed twice with 1×100 μL PBS (phosphate buffered saline), fixed for 20 minutes with 96% vol. ethanol (96% vol. solution in water) and the biofilm retained at the bottom of the wells was stained with 1 weight % crystal violet (1 weight % solution in water). The bound dye was dissolved with 5% vol. acetic acid (5% vol. solution in water). Quantification of the stained biofilm was performed by measuring the absorbance at 630 nm using a Multiskan Ascent microplate reader (Thermo Scientific).
The experiment was carried out on three different days (thus providing 3 biological replicas) and each day the experiment was carried out in quadruple (thus providing 4 technical replicas) for each combination of bacterium with saccharide and for each control. For each day and for each combination, the average (mean) of the values obtained (as detailed above) for the four technical replicas was calculated to provide a single value for each combination on each day. The values shown in Tables 7a, 7b, 8a, 8b, below, are the average (mean) of the three single values obtained for each combination of bacterium with saccharide. […]

[3] = test system: C. sputigena; experiment: Twenty-four hour biofilm growth (crystal violet)
Method: as §1
(§2) The experiment was carried out on three different days (thus providing 3 biological replicas) and each day the experiment was carried out in quadruple (thus providing 4 technical replicas) for each combination of bacterium with saccharide and for each control. For each day and for each combination, the average (mean) of the values obtained (as detailed above) for the four technical replicas was calculated to provide a single value for each combination on each day. The values shown in Tables 7a, 7b, 8a, 8b, below, are the average (mean) of the three single values obtained for each combination of bacterium with saccharide.

[4] = test system: S. mitis; experiment: Twenty-four hour biofilm growth (crystal violet)
Method: as §1, §2

[5] = test system: A. naeslundii; experiment: Twenty-four hour biofilm growth (crystal violet)
Method: as §1, §2

[6] = test system: V. parvula; experiment: Twenty-four hour biofilm growth (crystal violet)
Method: as §1, §2

[7] = test system: S. salivarius; experiment: Twenty-four hour biofilm growth (crystal violet)
Method: as §1, §2

CC(=O)N[C@H](C=O)[C@@H](O)[C@H](O)[C@H](O)CO [N-acetyl-D-mannosamine, 2-acetamido-2-deoxy-D-mannose]
prebiotic effects (metabolic activity, threshold value 2) [1]: exhibited prebiotic effects | speed of metabolism by beneficial versus pathogenic bacteria (value of 2 reached at 24 hrs) [1]: metabolized faster by the beneficial bacteria than by the pathogenic bacteria | prebiotic effects (biofilm growth, threshold value 1.6) [2]: exhibited prebiotic effects | biofilm growth: OD 630 nm at 24 hrs divided by OD of control (control = 1) ([3]; 5 μmol/ml): 0.9108 | biofilm growth: OD 630 nm at 24 hrs divided by OD of control (control = 1) ([3]; 10 μmol/ml): 0.9323 | biofilm growth: OD 630 nm at 24 hrs divided by OD of control (control = 1) ([3]; 20 μmol/ml): 0.8871 | biofilm growth: OD 630 nm at 24 hrs divided by OD of control (control = 1) ([3]; 25 μmol/ml): 0.8822 | biofilm growth: OD 630 nm at 24 hrs divided by OD of control (control = 1) ([4]; 5 μmol/ml): 2.4328 | biofilm growth: OD 630 nm at 24 hrs divided by OD of control (control = 1) ([4]; 10 μmol/ml): 4.2456 | biofilm growth: OD 630 nm at 24 hrs divided by OD of control (control = 1) ([4]; 20 μmol/ml): 2.1524 | biofilm growth: OD 630 nm at 24 hrs divided by OD of control (control = 1) ([4]; 25 μmol/ml): 3.0078 | biofilm growth: OD 630 nm at 24 hrs divided by OD of control (control = 1) ([5]; 5 μmol/ml): 1.3056 | biofilm growth: OD 630 nm at 24 hrs divided by OD of control (control = 1) ([5]; 10 μmol/ml): 1.4302 | biofilm growth: OD 630 nm at 24 hrs divided by OD of control (control = 1) ([5]; 20 μmol/ml): 1.1823 | biofilm growth: OD 630 nm at 24 hrs divided by OD of control (control = 1) ([5]; 25 μmol/ml): 1.2220 | biofilm growth: OD 630 nm at 24 hrs divided by OD of control (control = 1) ([6]; 5 μmol/ml): 0.3811 | biofilm growth: OD 630 nm at 24 hrs divided by OD of control (control = 1) ([6]; 10 μmol/ml): 1.0958 | biofilm growth: OD 630 nm at 24 hrs divided by OD of control (control = 1) ([6]; 20 μmol/ml): 0.1297 | biofilm growth: OD 630 nm at 24 hrs divided by OD of control (control = 1) ([6]; 25 μmol/ml): 0.3718 | biofilm growth: OD 630 nm at 24 hrs divided by OD of control (control = 1) ([7]; 5 μmol/ml): 0.6489 | biofilm growth: OD 630 nm at 24 hrs divided by OD of control (control = 1) ([7]; 10 μmol/ml): 0.6824 | biofilm growth: OD 630 nm at 24 hrs divided by OD of control (control = 1) ([7]; 20 μmol/ml): 0.3314 | biofilm growth: OD 630 nm at 24 hrs divided by OD of control (control = 1) ([7]; 25 μmol/ml): 0.3520

Source: patent US11419806B2, “Prebiotic oral care methods using a saccharide” (Colgate-Palmolive Company, priority 2013, dated 2022)
